From US20230391748A1, “BICYCLIC INHIBITORS OF IRAK” (priority 2022, published 2023)

Assays:
[1] = target: IRAK4 (Homo sapiens (Human), UniProt Q9NWZ3); assay: IRAK4 ADP-Glo Assay; assay type: biochemical; conditions: MBP substrate
Outline: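 Human IRAK4 kinase reaction with MBP substrate plus ATP in Tris-HCl/MgCl2/BSA/DTT buffer, pH 7.4, run 60 min at room temperature or 30 min at 30 °C. ADP formed was measured by ADP-Glo luminescence after ATP depletion (40 min) and detection reagent (30 min).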

[2] = tested on: IL23p19 in THP-1 Cells; assay: LPS Induced IL23p19 in THP-1 Cells (with IFNγ Primed) Assay; assay type: cell-based; conditions: Homo sapiens, THP-1, 18 h, read-out: IL23 (THP, LPS) (IC50, μM)
Outline: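 THP-1 cells (50K/well) primed with IFNγ (50 ng/mL) about 18 h, then given compound and stimulated with LPS for 18 h at 37 °C. Secreted IL-23p19 measured by sandwich ELISA with chemiluminescent read-out, giving EC50. Cell Titer Glo used on the remaining cells for toxicity.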

[3] = tested on: TNF-α in human PBMCs; assay: R848-induced TNF-α in human PBMCs Assay; assay type: cell-based; conditions: Homo sapiens, PBMC, 4 h, read-out: TNFα (PBMC, R848) (IC50, μM)
Outline: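 Human PBMCs at 200K/well were pretreated with compound, then R848-stimulated for 4 h at 37 °C, 5% CO2. Supernatant TNF-α quantified by chemiluminescent ELISA; EC50 from curve fitting.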

[4] = tested on: TNF-α in Human Primary Monocyte-Derived Dendritic Cells; assay: Gardiquimod-Induced TNF-α in Human Primary Monocyte-Derived Dendritic Cells; assay type: cell-based; conditions: Dendritic cell, IFNγ-primed monocyte-derived dendritic cells, 4 μg/ml Gardiquimod, 6 hours, TNF-α ELISA, read-out: TNFα (DC, GARD) (IC50)
Outline: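 Monocytes differentiated 7 days with GM-CSF and IL-4, then primed 24 h with 50 ng/ml IFN-γ. Compound added 1 h before 6 h stimulation with 4 μg/ml Gardiquimod, 0.5% DMSO final. Supernatant TNF-α measured by chemiluminescent ELISA; EC50 from curve fitting.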

IRAK4, sequence (Q9NWZ3 whole entry): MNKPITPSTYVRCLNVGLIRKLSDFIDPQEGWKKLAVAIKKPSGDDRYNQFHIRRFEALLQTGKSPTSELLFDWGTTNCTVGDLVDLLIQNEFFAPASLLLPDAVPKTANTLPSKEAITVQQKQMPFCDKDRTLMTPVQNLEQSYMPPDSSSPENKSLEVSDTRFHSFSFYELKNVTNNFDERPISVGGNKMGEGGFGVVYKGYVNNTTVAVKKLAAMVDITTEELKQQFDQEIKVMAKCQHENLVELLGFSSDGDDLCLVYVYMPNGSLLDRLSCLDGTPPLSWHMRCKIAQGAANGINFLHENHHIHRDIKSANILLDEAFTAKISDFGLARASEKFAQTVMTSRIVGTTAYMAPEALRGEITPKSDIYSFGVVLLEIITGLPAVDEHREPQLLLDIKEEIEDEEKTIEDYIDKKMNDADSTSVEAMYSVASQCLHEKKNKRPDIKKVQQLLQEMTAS

SMILES	IC50 [1] [nM]	IC50 [2] [µM]	IC50 [3] [µM]	IC50 [4] [nM]
CC(C)Oc1cc2c(O[C@@H]3CCCN(C(=O)CC#N)C3)ncc(C#CC3(O)CCCC3)c2cc1C(N)=O [Compound I-88, (R)-1-((1-(2-cyanoacetyl)piperidin-3-yl)oxy)-4-((1-hydroxycyclopentyl)ethynyl)-7-isopropoxyisoquinoline-6-carboxamide]	29.7	2.07	0.903	696
CC(C)Oc1cc2c(O[C@@H]3CCCN(C(=O)CC#N)C3)ncc(C#CC3CCOCC3)c2cc1C(N)=O [Compound I-89, (R)-1-((1-(2-cyanoacetyl)piperidin-3-yl)oxy)-7-isopropoxy-4-((tetrahydro-2H-pyran-4-yl)ethynyl)isoquinoline-6-carboxamide]	15.2	1.71	0.556	530
CC(C)Oc1cc2c(O[C@@H]3CCCN(C(=O)CC#N)C3)ncc(C#CCC3CCOCC3)c2cc1C(N)=O [Compound I-90, (R)-1-((1-(2-cyanoacetyl)piperidin-3-yl)oxy)-7-isopropoxy-4-(3-(tetrahydro-2H-pyran-4-yl)prop-1-yn-1-yl)isoquinoline-6-carboxamide]	20.5	1.42	0.433	616
CC(C)Oc1cc2c(O[C@@H]3CCCN(C(=O)CC#N)C3)ncc(C#CC3(O)CCOCC3)c2cc1C(N)=O [Compound I-91, (R)-1-((1-(2-cyanoacetyl)piperidin-3-yl)oxy)-4-((4-hydroxytetrahydro-2H-pyran-4-yl)ethynyl)-7-isopropoxyisoquinoline-6-carboxamide]	20.7	10.2	3.76	15400
CC(C)Oc1cc2c(O[C@@H]3CCCN(C(=O)CC#N)C3)ncc(C#CC3(O)CCN(C(=O)OC(C)(C)C)CC3)c2cc1C(N)=O [Compound I-92, tert-butyl (R)-4-((6-carbamoyl-1-((1-(2-cyanoacetyl)piperidin-3-yl)oxy)-7-isopropoxyisoquinolin-4-yl)ethynyl)-4-hydroxypiperidine-1-carboxylate]	142	4.92	3.7	13900
CC(C)Oc1cc2c(O[C@@H]3CCCN(C(=O)CC#N)C3)ncc(C#CC3CCN(C(=O)OC(C)(C)C)CC3)c2cc1C(N)=O [Compound I-95, tert-butyl (R)-4-((6-carbamoyl-1-((1-(2-cyanoacetyl)piperidin-3-yl)oxy)-7-isopropoxyisoquinolin-4-yl)ethynyl)piperidine-1-carboxylate]	68.5	1.56	2.1	842
CC(C)Oc1cc2c(O[C@@H]3CCCN(C(=O)CC#N)C3)ncc(C#CC3CCNCC3)c2cc1C(N)=O [Compound I-96, (R)-1-((1-(2-cyanoacetyl)piperidin-3-yl)oxy)-7-isopropoxy-4-(piperidin-4-ylethynyl)isoquinoline-6-carboxamide]	8	7.84	1.71	1170
CC(C)Oc1cc2c(O[C@@H]3CCCN(C(=O)CC#N)C3)ncc(C#CC3CCN(C)CC3)c2cc1C(N)=O [Compound I-97, (R)-1-((1-(2-cyanoacetyl)piperidin-3-yl)oxy)-7-isopropoxy-4-((1-methylpiperidin-4-yl)ethynyl)isoquinoline-6-carboxamide]	15.4	1.98	0.752	250
CCO[C@H]1CC[C@H](C#Cc2cnc(O[C@@H]3CCCN(C(=O)CC#N)C3)c3cc(OC(C)C)c(C(N)=O)cc23)CC1 [Compound I-98, 1-(((R)-1-(2-cyanoacetyl)piperidin-3-yl)oxy)-4-(((1r,4R)-4-ethoxycyclohexyl)ethynyl)-7-isopropoxyisoquinoline-6-carboxamide]	25.5	0.484	0.22	136
CCO[C@H]1CC[C@@H](C#Cc2cnc(O[C@@H]3CCCN(C(=O)CC#N)C3)c3cc(OC(C)C)c(C(N)=O)cc23)CC1 [Compound I-99, 1-(((R)-1-(2-cyanoacetyl)piperidin-3-yl)oxy)-4-((cis-4-ethoxycyclohexyl)ethynyl)-7-isopropoxyisoquinoline-6-carboxamide]	23.1	0.483	0.555	366
CC(C)Oc1cc2c(O[C@@H]3CCCN(C(=O)CC#N)C3)ncc(C#C[C@H]3CC[C@](C)(O)CC3)c2cc1C(N)=O [Compound I-100, 1-(((R)-1-(2-cyanoacetyl)piperidin-3-yl)oxy)-4-(((1r,4R)-4-hydroxy-4-methylcyclohexyl)ethynyl)-7-isopropoxyisoquinoline-6-carboxamide]	34.8	0.96	3.3	1410
CC(C)Oc1cc2c(O[C@@H]3CCCN(C(=O)CC#N)C3)ncc(C#C[C@H]3CC[C@@](C)(O)CC3)c2cc1C(N)=O [Compound I-101, 1-(((R)-1-(2-cyanoacetyl)piperidin-3-yl)oxy)-4-(((1s,4S)-4-hydroxy-4-methylcyclohexyl)ethynyl)-7-isopropoxyisoquinoline-6-carboxamide]	13.7	0.27	3.33	750
CC(C)Oc1cc2c(O[C@@H]3CCCN(C(=O)CC#N)C3)ncc(C#CC3CN(C(=O)OC(C)(C)C)C3)c2cc1C(N)=O [Compound I-102, tert-butyl (R)-3-((6-carbamoyl-1-((1-(2-cyanoacetyl)piperidin-3-yl)oxy)-7-isopropoxyisoquinolin-4-yl)ethynyl)azetidine-1-carboxylate]	35.3	0.16	0.19	63
CC(C)Oc1cc2c(O[C@@H]3CCCN(C(=O)CC#N)C3)ncc(C#CC3CNC3)c2cc1C(N)=O [Compound I-103, (R)-4-(azetidin-3-ylethynyl)-1-((1-(2-cyanoacetyl)piperidin-3-yl)oxy)-7-isopropoxyisoquinoline-6-carboxamide]	5.2	9.35	0.441	828
CC(C)Oc1cc2c(O[C@@H]3CCCN(C(=O)CC#N)C3)ncc(C#CC3CN(C)C3)c2cc1C(N)=O [Compound I-104, (R)-1-((1-(2-cyanoacetyl)piperidin-3-yl)oxy)-7-isopropoxy-4-((1-methylazetidin-3-yl)ethynyl)isoquinoline-6-carboxamide]	7.1	1.76	0.237	159
COC1(OC)CC(C#Cc2cnc(O[C@@H]3CCCN(C(=O)CC#N)C3)c3cc(OC(C)C)c(C(N)=O)cc23)C1 [Compound I-105, (R)-1-((1-(2-cyanoacetyl)piperidin-3-yl)oxy)-4-((3,3-dimethoxycyclobutyl)ethynyl)-7-isopropoxyisoquinoline-6-carboxamide]	10	0.603	0.275	286
CC(C)Oc1cc2c(O[C@@H]3CCCN(C(=O)CC#N)C3)ncc(C#C[C@H]3C[C@@H](N(C)C)C3)c2cc1C(N)=O [Compound I-106, 1-(((R)-1-(2-cyanoacetyl)piperidin-3-yl)oxy)-4-((cis-3-(dimethylamino)cyclobutyl)ethynyl)-7-isopropoxyisoquinoline-6-carboxamide]	3.2	0.436	0.363	53.5
CC(C)Oc1cc2c(O[C@@H]3CCCNC3)ncc(-c3cnn(C4CC4)c3)c2cc1C(N)=O [Compound I-108, (R)-4-(1-cyclopropyl-1H-pyrazol-4-yl)-7-isopropoxy-1-(piperidin-3-yloxy)isoquinoline-6-carboxamide]	142	10	5.5	1370
CC(C)Oc1cc2c(O[C@@H]3CCCNC3)ncc(-c3cnn(C4CCC4)c3)c2cc1C(N)=O [Compound I-109, (R)-4-(1-cyclobutyl-1H-pyrazol-4-yl)-7-isopropoxy-1-(piperidin-3-yloxy)isoquinoline-6-carboxamide]	171	34.9	2.55	1440
CC(C)Oc1cc2c(O[C@@H]3CCCNC3)ncc(-c3cnn(C4CCCC4)c3)c2cc1C(N)=O [Compound I-110, (R)-4-(1-cyclopentyl-1H-pyrazol-4-yl)-7-isopropoxy-1-(piperidin-3-yloxy)isoquinoline-6-carboxamide]	123	24.7	2.44	1790
CC(C)Oc1cc2c(O[C@@H]3CCCNC3)ncc(-c3cnn(C4CCOCC4)c3)c2cc1C(N)=O [Compound I-111, (R)-7-isopropoxy-1-(piperidin-3-yloxy)-4-(1-(tetrahydro-2H-pyran-4-yl)-1H-pyrazol-4-yl)isoquinoline-6-carboxamide]	1440	15.5	3.46	2270
